Assay results published in patent US20140088006A1, “Stem Cell Mobilization and Tissue Repair and Regeneration” (Wellstat Therapeutics Corporation, priority 2011, published 2014).
Several values for one entry are separate records, joined by “and”; a condition that tells them apart may be missing. Identical values can stand only once. No end group written: not given here.

Assays:
[1] = system: white blood cells in peripheral blood; experiment: White blood cell count in peripheral blood after single subcutaneous injection; type: in vivo, C57Bl6 mice; settings: for White Blood Cell counts: Cell Count: individual mice
Procedure: (§1) C57Bl6 male mice, from 8 weeks to 4 month of age, from Harlan were used. Mice received subcutaneous injections of saline, Compound X (50 μg/kg) or Compound X (250 μg/kg). After 1 and 4 hours, mice were anesthetized and blood was collected through the orbital sinus with heparinized capillary tubes. 20 μl of blood was removed from each tube for WBC counts;
(§2) In this experiment, C57Bl6 mice received subcutaneous injections of PBS, Compound X (250 μg/kg) or AMD3100 (5 mg/kg). After 1 hr blood was collected through the orbital sinus with heparinized capillary tubes. Blood from each group was pooled, counted and mononuclear cells were isolated by density gradient separation. Cells were washed, counted and plated at 100,000 per dish (5 dishes/group) for CFU-GEMM and CFU-GM colonies. CFU-GEMM colonies were scored on day 14, while CFU-GM colonies on day 7 after plating in MC3434 (Stem cell Technology).

[2] = system: hematopoietic stem cells (HSC) and their hematopoietic progenitors (HPC); experiment: CFU-GM / CFU-GEMM colony assay of peripheral blood mononuclear cells after single subcutaneous injection; type: in vivo, C57Bl6 mice
Procedure: as §1
Remaining blood from each group was pooled and mononuclear cells were isolated by density gradient separation. To enumerate HSC and HPC in peripheral blood cells were washed, counted plated in semi-solid Methylcellulose MC3434 (Stem cell technology) at 100,000 per dish (5 dishes/group) and placed in CO2 incubator at 37° C. Colony-forming unit-granulocyte erythroid macrophage megakaryocyte (CFU-GEMM) and Colony-forming unit-granulocyte macrophage (CFU-GM) were detected under inverted microscope 7 and 10 days after.
as §2

[3] = system: CFU-GEMM / CFU-GM progenitor cells; experiment: CFU colony assay of peripheral blood after 4 daily subcutaneous injections; type: in vivo, C57Bl/6 male mice; settings: for CFU-GEMM number, AVG / CFU-GEMM number: 1 hr after injection; for CFU-GEMM number: individual dishes
Procedure: This example is based on a protocol for a 4-day course of once-daily Compound X injections into C57Bl/6 male mice similar to G-CSF. Two effective dose levels of Compound X were found previously to mobilize HSC 1 hr after single injection and were selected for this experiment. Four-month old C57Bl/6 male mice (Jackson Laboratories) were subcutaneously injected with 0.9% saline, 125 μg/kg Compound X or 250 μg/kg Compound X on days 1, 2, 3 and 4 as described in Table 4. Each day, one-hour post injections, peripheral blood from 3 mice per group was harvested from the orbital plexus into EDTA-containing tubes. On day 4, a femur and spleen were also removed from mice to assess by FACS whether any toxicity aroused from repeated injections of Compound X.
As in the previous example to determine mobilization of colony-forming cells out of the bone marrow, mononuclear cells from peripheral blood were plated into MethoCult 3434 media (Stem Cell Technologies). Briefly, after white blood cell counting, the remaining peripheral blood was diluted (1:1, v/v) with 0.9% saline (APP Pharmaceutical) and layered (2:1, v/v) onto 1-Step™1.077 A (Accurate Chemicals) in 15-ml centrifuge tubes. Cells were centrifuged at 600×g for 20 min at room temperature. The mononuclear cells were harvested from the interface between the plasma layer and the 1-Step™ A solution using a 1-ml syringe and blunt-end needle. The cells were transferred to 15-ml centrifuge tubes and washed twice in 1×PBS. Cells were resuspended in 1 ml of IMDM and cell counts were obtained using the Coulter counter. Cells were placed into 35-mm Petri dishes at 200,000 cells per dish with 5 dishes per group. Cells incubated for 10 days in a 37° C. and 5% CO2 humidified incubator. CFU colonies were then scored using an inverted microscope—CFU-GM detected on day 7 and CFU-GEMM—on day 10. Data presented in Tables 7, 8 and 9, FIGS. 3 and 4.

[4] = s.c. 250 μg/kg, 1 hour, individual dishes

## FPHFDLSHGSAQV [Compound X, tridecapeptide that acts on stem cells]
[1]; s.c. 250 μg/kg, 1 hr, pooled blood
  White blood cell count: Cell Count: 7.2e+06 mL⁻¹
[1]; single s.c. 50 μg/kg, 1 hour
  White Blood Cell counts: Cell Count: 1.41e+07 mL⁻¹ and 7.8e+06 mL⁻¹ and 9.6e+06 mL⁻¹
[1]; single s.c. 50 μg/kg, 4 hours
  White Blood Cell counts: Cell Count: 2.22e+07 mL⁻¹ and 6.9e+06 mL⁻¹ and 1e+07 mL⁻¹
[1]; single s.c. 250 μg/kg, 1 hour
  White Blood Cell counts: Cell Count: 9.6e+06 mL⁻¹ and 9.2e+06 mL⁻¹ and 1.79e+07 mL⁻¹
[1]; single s.c. 250 μg/kg, 4 hours
  White Blood Cell counts: Cell Count: 1.67e+07 mL⁻¹ and 1.46e+07 mL⁻¹ and 1.03e+07 mL⁻¹
[1]; single s.c. 50 or 250 μg/kg
  egress of cells from bone marrow into peripheral blood (white blood cell count): did not cause massive egress of cells
[2]; 1 hr after s.c. injection
  increase in number of HSC HPC in blood: up to 5 times
[2]; doses tested from 5 μg/kg up to 5 mg
  doses with mobilizing activity: 0.125 to 0.5 mg/kg
[2]; s.c. 250 μg/kg, 1 hour
  CFU-GEMM, MEAN: 3.8 per 100,000 cells
  CFU-GM (day 7), MEAN: 4 per 100,000 cells
[2]; [4]
  CFU-GEMM: 6 per 100,000 cells and 3 per 100,000 cells (3×) and 4 per 100,000 cells
  CFU-GM (day 7): 3 per 100,000 cells (2×) and 6 per 100,000 cells and 4 per 100,000 cells (2×)
[2]; s.c. 250 μg/kg, 1 hr
  number of white blood cells and CFU-GM in peripheral blood: did not change
[2]; s.c. 250 μg/kg, 1 hr, vs PBS
  increase of CFU-GEMM number in peripheral blood: 3.8 times
[2]; single s.c. 50 μg/kg, 1 hour
  CFU-GM + CFU-GEMM, MEAN: 5 per 100000 cells
[2]; single s.c. 50 μg/kg, 1 hour, individual dishes
  CFU-GM + CFU-GEMM: 5 per 100000 cells and 6 per 100000 cells and 4 per 100000 cells and 3 per 100000 cells and 7 per 100000 cells
[2]; single s.c. 50 μg/kg, 4 hour
  CFU-GM + CFU-GEMM, MEAN: 0.6 per 100000 cells
[2]; single s.c. 50 μg/kg, 4 hour, individual dishes
  CFU-GM + CFU-GEMM: 1 per 100000 cells (3×) and 0 per 100000 cells (2×)
[2]; single s.c. 250 μg/kg, 1 hour
  CFU-GM + CFU-GEMM, MEAN: 25 per 100000 cells
[2]; single s.c. 250 μg/kg, 1 hour, individual dishes
  CFU-GM + CFU-GEMM: 24 per 100000 cells (2×) and 20 per 100000 cells and 28 per 100000 cells and 29 per 100000 cells
[2]; single s.c. 250 μg/kg, 4 hour
  CFU-GM + CFU-GEMM, MEAN: 1.4 per 100000 cells
[2]; single s.c. 250 μg/kg, 4 hour, individual dishes
  CFU-GM + CFU-GEMM: 1 per 100000 cells (4×) and 3 per 100000 cells
[2]; within 1 hr after injection, from approximately 100 HSC under homeostatic conditions
  stem cell number (HSC) in circulation: 300-400 HSC
[3]; 125 μg/kg s.c. daily, Day 1
  CFU-GEMM number, AVG: 2.4 per 100000 mononuclear cells
  CFU-GEMM number: 2 per 100000 mononuclear cells (4×) and 4 per 100000 mononuclear cells
[3]; 125 μg/kg s.c. daily, Day 2
  CFU-GEMM number, AVG: 2.8 per 100000 mononuclear cells
  CFU-GEMM number: 5 per 100000 mononuclear cells and 3 per 100000 mononuclear cells (2×) and 1 per 100000 mononuclear cells and 2 per 100000 mononuclear cells
[3]; 125 μg/kg s.c. daily, Day 3
  CFU-GEMM number, AVG: 0.4 per 100000 mononuclear cells
  CFU-GEMM number: 1 per 100000 mononuclear cells (2×) and 0 per 100000 mononuclear cells (3×)
[3]; 125 μg/kg s.c. daily, Day 4
  CFU-GEMM number, AVG: 0.8 per 100000 mononuclear cells
  CFU-GEMM number: 0 per 100000 mononuclear cells (2×) and 2 per 100000 mononuclear cells and 1 per 100000 mononuclear cells (2×)
[3]; 250 μg/kg over 4 days, all days
  increase in multilineage CFU-GEMM colonies vs saline: ≥ 2 fold
[3]; 250 μg/kg s.c. daily, Day 1
  CFU-GEMM number, AVG: 2.6 per 100000 mononuclear cells
  CFU-GEMM number: 4 per 100000 mononuclear cells (2×) and 1 per 100000 mononuclear cells and 2 per 100000 mononuclear cells (2×)
[3]; 250 μg/kg s.c. daily, Day 2
  CFU-GEMM number, AVG: 3.6 per 100000 mononuclear cells
  CFU-GEMM number: 2 per 100000 mononuclear cells and 6 per 100000 mononuclear cells (2×) and 3 per 100000 mononuclear cells and 1 per 100000 mononuclear cells
[3]; 250 μg/kg s.c. daily, Day 3
  CFU-GEMM number, AVG: 2.8 per 100000 mononuclear cells
  CFU-GEMM number: 2 per 100000 mononuclear cells (2×) and 4 per 100000 mononuclear cells and 3 per 100000 mononuclear cells (2×)
[3]; 250 μg/kg s.c. daily, Day 4
  CFU-GEMM number, AVG: 4 per 100000 mononuclear cells
  CFU-GEMM number: 4 per 100000 mononuclear cells (3×) and 3 per 100000 mononuclear cells and 5 per 100000 mononuclear cells
[3]; 250 μg/kg, day 3
  increase in CFU-GEMM vs saline: 4.7 fold
[3]; s.c. daily for 4 days
  mobilization of granulocytic and macrophage precursors CFU-GM: did not affect mobilization
